Results published in ChEMBL document CHEMBL1125475, “Preferred antagonist binding state of the NMDA receptor: synthesis, pharmacology, and computer modeling of (phosphonomethyl)phenylalanine derivatives” (1992).

Legend:
Format in all cases: functional
Mus musculus [1] = species: Mus musculus; experiment: Antagonistic activity of 100 uM of compound against electrophysiological responses induced by NMDA (10 uM) in culture mouse cortical neurons
Mus musculus [2] = species: Mus musculus; experiment: Tested for antagonistic activity against electrophysiological responses induced by NMDA (10 uM) in culture mouse cortical neurons at 100 uM
Mus musculus [3] = species: Mus musculus; experiment: Antagonistic activity of 10 uM of compound against electrophysiological responses induced by NMDA (10 uM) in culture mouse cortical neurons
Mus musculus [4] = species: Mus musculus; experiment: Tested for antagonistic activity against electrophysiological responses induced by NMDA (10 uM) in culture mouse cortical neurons at 10 uM

Structure (SMILES): NC(Cc1cccc(CC(=O)O)c1)C(=O)O (centres undefined)
- Inhibition (Mus musculus [1]): 31%

Structure (SMILES): NC(CC1CCCCC1CP(=O)(O)O)C(=O)O (centres undefined)
- Inhibition (Mus musculus [1]): 75%

Structure (SMILES): NC(CC1CCCC(CS(=O)(=O)[O-])C1)C(=O)O.[Na+] (centres undefined)
- Inhibition (Mus musculus [1]): 50%

Structure (SMILES): NC(Cc1cccc(CC(=O)NO)c1)C(=O)O (centres undefined)
- Inhibition (Mus musculus [2]): 12%

Structure (SMILES): NC(Cc1ccccc1CS(=O)(=O)[O-])C(=O)O.[Na+] (centres undefined)
- Inhibition (Mus musculus [1]): 22%

Structure (SMILES): NC(Cc1ccccc1CP(=O)(O)O)C(=O)O (centres undefined)
- Inhibition (Mus musculus [1]): 87%
- Inhibition (Mus musculus [3]): 40%

Structure (SMILES): NC(Cc1cccc(CS(=O)(=O)[O-])c1)C(=O)O.[Na+] (centres undefined)
- Inhibition (Mus musculus [1]): 0%

Structure (SMILES): NC(CC1CCC(CS(=O)(=O)[O-])CC1)C(=O)O.[Na+] (centres undefined)
- Inhibition (Mus musculus [1]): 20%

Structure (SMILES): NC(CC1CCCC(CP(=O)(O)O)C1)C(=O)O (centres undefined)
- Inhibition (Mus musculus [1]): 90%
- Inhibition (Mus musculus [3]): 34%

Structure (SMILES): NC(CCCP(=O)(O)O)C(=O)O (centres undefined)
- Inhibition (Mus musculus [4]): 68%
- Inhibition (Mus musculus [2]): 100%

Structure (SMILES): NC(Cc1ccc(CS(=O)(=O)[O-])cc1)C(=O)O.[Na+] (centres undefined)
- Inhibition (Mus musculus [1]): 0%

Structure (SMILES): NC(CC1CCCCC1CS(=O)(=O)[O-])C(=O)O.[Na+] (centres undefined)
- Inhibition (Mus musculus [1]): 50%

Structure (SMILES): NC(Cc1ccc(CP(=O)(O)O)cc1)C(=O)O (centres undefined)
- Inhibition (Mus musculus [1]): 0%

Structure (SMILES): NC(Cc1cccc(CP(=O)(O)O)c1)C(=O)O (centres undefined)
- Inhibition (Mus musculus [1]): 100%
- Inhibition (Mus musculus [3]): 80%

Structure (SMILES): NC(CC1CCC(CP(=O)(O)O)CC1)C(=O)O (centres undefined)
- Inhibition (Mus musculus [1]): 18%
